From ChEMBL document CHEMBL1949518, “Synthesis and biological evaluation of some new 2-pyrazolines bearing benzene sulfonamide moiety as potential anti-inflammatory and anti-cancer agents” (Eur J Med Chem, 2011)

How the values were obtained:
Format in all cases: functional
[1] = test system: SK-MEL-2; test: Antiproliferative activity against human SK-MEL-2 cells assessed as cell growth at 10^-5 M after 48 hrs by SRB assay relative to control; conditions: SK-MEL-2, 48 h, read-out: Activity
[2] = test system: MCF7; test: Anticancer activity against human MCF7 cells after 48 hrs by SRB assay; conditions: MCF7, 48 h
[3] = test system: HOP-62; test: Anticancer activity against human HOP62 cells after 48 hrs by SRB assay; conditions: HOP-62, 48 h
[4] = test system: LOX IMVI; test: Anticancer activity against human LOXIMVI cells after 48 hrs by SRB assay
[5] = test system: NCI-H522; test: Anticancer activity against human NCI-H522 cells after 48 hrs by SRB assay; conditions: NCI-H522, 48 h
[6] = test system: PC-3; test: Anticancer activity against human PC3 cells after 48 hrs by SRB assay; conditions: PC-3, 48 h
[7] = test system: A498; test: Anticancer activity against human A498 cells after 48 hrs by SRB assay; conditions: A498, 48 h
[8] = test system: EKVX; test: Anticancer activity against human EKVX cells after 48 hrs by SRB assay
[9] = test system: NCI-H226; test: Anticancer activity against human NCI-H226 cells after 48 hrs by SRB assay; conditions: NCI-H226, 48 h
[10] = test system: 786-0; test: Anticancer activity against human 786-0 cells after 48 hrs by SRB assay; conditions: 786-0, 48 h
[11] = test system: OVCAR-4; test: Anticancer activity against human OVCAR4 cells after 48 hrs by SRB assay; conditions: OVCAR-4, 48 h
[12] = test system: HCT-15; test: Anticancer activity against human HCT15 cells after 48 hrs by SRB assay; conditions: HCT-15, 48 h
[13] = Anticancer activity against human Hs 578T cells after 48 hrs by SRB assay
[14] = test system: SNB-75; test: Anticancer activity against human SNB75 cells after 48 hrs by SRB assay; conditions: SNB-75, 48 h
[15] = test system: NCI-H322M; test: Anticancer activity against human NCI-H322M cells after 48 hrs by SRB assay
[16] = test system: SK-MEL-2; test: Anticancer activity against human SK-MEL-2 cells after 48 hrs by SRB assay; conditions: SK-MEL-2, 48 h
[17] = test system: CAKI-1; test: Anticancer activity against human Caki1 cells after 48 hrs by SRB assay; conditions: CAKI-1, 48 h
[18] = test system: NCI/ADR-RES; test: Anticancer activity against human NCI/ADR-RES cells after 48 hrs by SRB assay
[19] = test system: DU-145; test: Anticancer activity against human DU145 cells after 48 hrs by SRB assay; conditions: DU-145, 48 h
[20] = test system: HL-60(TB); test: Anticancer activity against human HL-60(TB) cells after 48 hrs by SRB assay; conditions: HL-60, 48 h
[21] = test system: MDA-MB-231; test: Anticancer activity against human MDA-MB-231 cells after 48 hrs by SRB assay; conditions: MDA-MB-231, 48 h
[22] = test system: RXF 393; test: Anticancer activity against human RXF393 cells after 48 hrs by SRB assay; conditions: RXF 393, 48 h
[23] = test system: M14; test: Anticancer activity against human M14 cells after 48 hrs by SRB assay; conditions: M14, 48 h
[24] = test system: K562; test: Anticancer activity against human K562 cells after 48 hrs by SRB assay; conditions: K562, 48 h
[25] = test system: SNB-19; test: Anticancer activity against human SNB19 cells after 48 hrs by SRB assay; conditions: SNB-19, 48 h
[26] = test system: SK-OV-3; test: Anticancer activity against human SKOV3 cells after 48 hrs by SRB assay; conditions: SK-OV-3, 48 h
[27] = test system: U-251; test: Anticancer activity against human U251 cells after 48 hrs by SRB assay; conditions: U-251, 48 h
[28] = test system: MDA-MB-435; test: Anticancer activity against human MDA-MB-435 cells after 48 hrs by SRB assay; conditions: MDA-MB-435, 48 h
[29] = test system: CCRF-CEM; test: Anticancer activity against human CCRF-CEM cells after 48 hrs by SRB assay
[30] = test system: TK-10; test: Anticancer activity against human TK10 cells after 48 hrs by SRB assay; conditions: TK-10, 48 h
[31] = test system: HCC 2998; test: Anticancer activity against human HCC2998 cells after 48 hrs by SRB assay; conditions: HCC 2998, 48 h
[32] = test system: T47D; test: Anticancer activity against human T47D cells after 48 hrs by SRB assay
[33] = test system: COLO 205; test: Anticancer activity against human COLO205 cells after 48 hrs by SRB assay; conditions: COLO 205, 48 h
[34] = test system: SK-MEL-28; test: Anticancer activity against human SK-MEL-28 cells after 48 hrs by SRB assay; conditions: SK-MEL-28, 48 h
[35] = test system: OVCAR-3; test: Anticancer activity against human OVCAR3 cells after 48 hrs by SRB assay; conditions: OVCAR-3, 48 h
[36] = read-out: LC50 (the source's name)

COc1ccc(C2CC(c3c(O)cc(C)c(Cl)c3C)=NN2c2ccc(S(N)(=O)=O)cc2)cc1 (stereo unspecified)
growth at 10 µM [1]: 94.3%

Cc1cc(O)c(C2=NN(c3ccc(S(N)(=O)=O)cc3)C(c3ccc(Cl)cc3)C2)c(C)c1Cl (stereo unspecified)
GI50 [2]: 6.55 µM
TGI [2]: 24.2 µM
CC50 [2, 36]: 71.1 µM
GI50 [3]: 18.6 µM
TGI [3]: 34.8 µM
GI50 [4]: 14.8 µM
TGI [4]: 32 µM
CC50 [4, 36]: 69.2 µM
GI50 [5]: 18.6 µM
TGI [5]: 48.4 µM
GI50 [6]: 9.21 µM
TGI [6]: 23.9 µM
CC50 [6, 36]: 58.9 µM
GI50 [7]: 26.7 µM
TGI [7]: 43.9 µM
CC50 [7, 36]: 72.2 µM
GI50 [8]: 13.3 µM
TGI [8]: 36.1 µM
GI50 [9]: 13.4 µM
TGI [9]: 29.4 µM
GI50 [10]: 16.8 µM
TGI [10]: 32.2 µM
CC50 [10, 36]: 62 µM
GI50 [11]: 13.3 µM
TGI [11]: 27.6 µM
GI50 [12]: 14.2 µM
TGI [12]: 32 µM
GI50 [13]: 23 µM
TGI [13]: 62.3 µM
CC50 [13, 36]: 100 µM
GI50 [14]: 17 µM
TGI [14]: 42.2 µM
GI50 [15]: 18 µM
TGI [15]: 38.9 µM
GI50 [16]: 21.4 µM
TGI [16]: 43.6 µM
GI50 [17]: 23.3 µM
TGI [17]: 100 µM
CC50 [17, 36]: 100 µM
GI50 [18]: 19.3 µM
TGI [18]: 76.4 µM
CC50 [18, 36]: 100 µM
GI50 [19]: 19.2 µM
TGI [19]: 38.4 µM
CC50 [19, 36]: 77 µM
GI50 [20]: 20.3 µM
TGI [20]: 50 µM
GI50 [21]: 11 µM
TGI [21]: 27.2 µM
CC50 [21, 36]: 67.5 µM
GI50 [22]: 24.5 µM
TGI [22]: 59.1 µM
CC50 [22, 36]: 100 µM
GI50 [23]: 14 µM
TGI [23]: 29.4 µM
CC50 [23, 36]: 61.5 µM
GI50 [24]: 14 µM
TGI [24]: 44.8 µM
GI50 [25]: 22.2 µM
TGI [25]: 62.6 µM
GI50 [26]: 27.4 µM
TGI [26]: 90.8 µM
CC50 [26, 36]: 100 µM
GI50 [27]: 11.8 µM
TGI [27]: 26.9 µM
growth at 10 µM [1]: 92.5%
GI50 [28]: 13.4 µM
TGI [28]: 31 µM
GI50 [29]: 15.1 µM
TGI [29]: 43.5 µM
CC50 [29, 36]: 100 µM
GI50 [30]: 22.1 µM
TGI [30]: 42.4 µM
CC50 [30, 36]: 81.4 µM
GI50 [31]: 14.8 µM
TGI [31]: 30.9 µM
GI50 [32]: 5.72 µM
TGI [32]: 19.7 µM
CC50 [32, 36]: 51.4 µM
GI50 [33]: 12.3 µM
TGI [33]: 25.4 µM
GI50 [34]: 19.4 µM
TGI [34]: 35.6 µM
GI50 [35]: 17.8 µM
TGI [35]: 33.3 µM
